# Assay results taken from patent US8008292B2, “Condensed benzamide compounds and inhibitors of vanilloid receptor subtype 1 (VR1) activity” (Japan Tobacco Inc., priority 2004, dated 2011).
# Target: T1, human VR1 (Homo sapiens, UniProt Q8NER1)
# T1 construct: expressed in transfected cells
# Test: Inhibition of Ca2+ entry in cells caused by proton, in rat glioma (C6BU1) cells stably expressing human VR1 (Fura 2 fluorescence)
# Format: cell-based
# Conditions: inhibition of proton-induced Ca2+ entry
# How it was run: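 Fura 2-loaded C6BU1 cells in 20 mM MES buffer pH 6.8 with added Ca2+ were preincubated 10 min with compound (final 1 μM to 0.1 nM, 1% DMSO). Proton stimulation brought pH to 5.5. Fluorescence rise was measured, and IC50 was derived from % inhibition versus DMSO control.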
# T1 sequence (Q8NER1 whole entry): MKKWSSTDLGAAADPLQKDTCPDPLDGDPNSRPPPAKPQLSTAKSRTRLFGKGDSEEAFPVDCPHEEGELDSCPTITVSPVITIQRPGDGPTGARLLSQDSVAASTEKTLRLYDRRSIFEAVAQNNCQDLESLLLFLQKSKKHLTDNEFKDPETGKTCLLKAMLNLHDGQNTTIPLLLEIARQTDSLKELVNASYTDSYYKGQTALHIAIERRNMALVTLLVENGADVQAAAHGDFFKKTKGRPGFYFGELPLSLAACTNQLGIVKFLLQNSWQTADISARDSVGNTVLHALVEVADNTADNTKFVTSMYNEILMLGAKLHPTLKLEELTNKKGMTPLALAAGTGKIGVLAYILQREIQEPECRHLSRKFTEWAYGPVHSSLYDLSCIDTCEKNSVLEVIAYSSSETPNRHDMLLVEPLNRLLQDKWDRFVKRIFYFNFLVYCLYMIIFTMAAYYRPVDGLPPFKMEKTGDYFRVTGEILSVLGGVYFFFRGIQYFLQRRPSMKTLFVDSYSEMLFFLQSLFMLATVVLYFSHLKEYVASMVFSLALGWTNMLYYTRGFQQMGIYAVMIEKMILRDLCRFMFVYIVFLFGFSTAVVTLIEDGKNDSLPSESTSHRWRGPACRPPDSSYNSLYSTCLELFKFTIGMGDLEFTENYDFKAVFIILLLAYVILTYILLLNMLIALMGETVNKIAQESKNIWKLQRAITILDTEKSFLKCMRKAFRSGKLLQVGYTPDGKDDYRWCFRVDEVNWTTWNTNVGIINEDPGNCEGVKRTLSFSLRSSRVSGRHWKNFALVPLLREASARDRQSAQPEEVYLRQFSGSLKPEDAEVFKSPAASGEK
row,SMILES,IC50
1,CC(C)(C)C1CCC(NC(=O)c2cccc3c2OCCN3c2ncc(CO)cc2Cl)CC1 (stereo not drawn) [Example 2-33],< 100 nM
2,"CC(O)c1cnc(N2CCOc3c(C(=O)Nc4ccc(C(F)(F)F)cc4)cccc32)c(Cl)c1 (single isomer, unassigned; (+)) [Example 2-12, (+)-N-(4-trifluoromethylphenyl)-4-{3-chloro-5-(1-hydroxyethyl)pyridin-2-yl}-3,4-dihydro-2H-benzo[1,4]oxazine-8-carboxamide]",< 100 nM
3,O=C(Nc1cc(C(F)(F)F)cc(C(F)(F)F)c1)c1cccc2c1OCCN2c1ncc(CO)cc1Cl [Example 2-29],< 100 nM
4,Cc1ccc(N2CCOc3c(C(=O)Nc4ccc(N5CCCCC5)c(F)c4)cccc32)nc1 [Example 1-156],< 100 nM
5,CC(C)(C)COc1ccc(NC(=O)c2cccc3c2OC[C@H](CO)N3c2ncccc2Cl)cc1 [Example 4-15],< 100 nM
6,CNC(=O)[C@H]1COc2c(C(=O)Nc3ccc(C(F)(F)F)cc3)cccc2N1c1ncccc1Cl [Example 1-234],< 100 nM
7,O=C(Nc1ccc(N2CCCCC2)c(C(F)(F)F)c1)c1cccc2c1OC[C@H](CO)N2c1ncccc1Cl [Example 4-22],< 100 nM
8,COc1ccc(NC(=O)c2cccc3c2OCCN3c2ncccc2Cl)cc1C(F)(F)F [Example 1-056],< 100 nM
9,Cc1cccnc1N1c2cccc(C(=O)Nc3ccc(OCC(C)C)c(F)c3)c2OC[C@@H]1CO [Example 4-44],< 100 nM
10,"COC(=O)c1ccc(NC(=O)c2cccc3c2OCCN3c2ncccc2Cl)cc1 [Example 1-034, 4-(3-chloropyridin-2-yl)-N-(methoxycarbonylphenyl)-3,4-dihydro-2H-benzo[1,4]oxazine-8-carboxamide]",< 100 nM
11,COc1ccc(N2CCOc3c(C(=O)Nc4ccc(C(F)(F)F)cc4)cccc32)nc1 [Example 1-147],< 100 nM
12,CC(C)(C)c1ccc(NC(=O)c2cccc3c2OCCN3c2ccccn2)cc1 [Example 1-016],< 100 nM
13,COCC1CCN(c2ccc(NC(=O)c3cccc4c3OCCN4c3ccc(C)cn3)cc2F)CC1 [Example 1-071],< 100 nM
14,Cc1ccc(N2c3cccc(C(=O)Nc4ccc(OC(C)C)c(C(F)(F)F)c4)c3OC[C@@H]2CO)nc1 [Example 4-38],< 100 nM
15,CC(C)Oc1ccc(NC(=O)c2cccc3c2OCCN3c2ncccc2Cl)c(F)c1 [Example 1-052],< 100 nM
16,CC(C)(C)c1ccc(NC(=O)c2cccc3c2OCCN3c2ncccc2C(F)(F)F)cc1 [Example 1-017],< 100 nM
17,O=C(Nc1ccc(C(F)(F)F)c(F)c1)c1cccc2c1OC[C@H](CO)N2c1ccccc1Cl [Example 7-06],< 100 nM
18,O=C(Nc1ccc(OCC(F)(F)F)cc1)c1cccc2c1OCCN2c1ncc(CO)cc1Cl [Example 2-30],< 100 nM
19,Cc1ccc(N2CCOc3c(C(=O)Nc4ccc5c(c4)N(C)CCC5)cccc32)nc1 [Example 1-162],< 100 nM
20,COc1ccc(NC(=O)c2cccc3c2OC[C@H](CO)N3c2ccc(C)cn2)cc1C(F)(F)F [Example 4-28],< 100 nM

row,SMILES,IC50
1,O=C(Nc1ccc(OC(F)(F)F)cc1)c1cccc2c1OC[C@H](CO)N2c1ccc(Cl)cc1 [Example 7-07],< 100 nM
2,Cc1ccc(N2c3cccc(C(=O)Nc4ccc(OC(C)(C)C)c(F)c4)c3OC[C@@H]2CO)nc1 [Example 4-50],< 100 nM
3,CC(C)Oc1ccc(NC(=O)c2cccc3c2OC[C@H](CO)N3c2ncccc2Cl)cc1F [Example 4-09],< 100 nM
4,"CC(C)(C)c1ccc(NC(=O)c2cccc3c2OCCN3c2cnccn2)cc1 [Example 5-1, N-(4-tert-butylphenyl)-4-(pyrazine-2-yl)-3,4-dihydro-2H-benzo[1,4]oxazine-8-carboxamide]",100 to 1000 nM
5,COC1CCN(c2ccc(NC(=O)c3cccc4c3OCCN4c3ccc(Cl)cn3)cc2F)CC1 [Example 1-122],< 100 nM
6,COc1ccc(N2c3cccc(C(=O)Nc4ccc(OC(F)(F)F)cc4)c3OC[C@@H]2CO)cc1 [Example 7-08],< 100 nM
7,"Cc1cnc(N2c3cccc(C(=O)Nc4ccc(OC(F)(F)F)cc4)c3OC[C@@H]2CO)s1 [Example 6-1, (S)-3-hydroxymethyl-4-(5-methylthiazol-2-yl)-N-(4-trifluoromethoxyphenyl)-3,4-dihydro-2H-benzo[1,4]oxazine-8-carboxamide]",< 100 nM
8,"O=C(Nc1ccc(OC(F)(F)F)cc1)c1cccc2c1OC[C@H](CO)N2c1ccccc1Cl [Example 7-04, (S)-4-(2-chlorophenyl)-3-hydroxymethyl-N-(4-trifluoromethoxyphenyl)-3,4-dihydro-2H-benzo[1,4]oxazine-8-carboxamide]",< 100 nM
9,"CC(O)c1cnc(N2CCOc3c(C(=O)Nc4ccc(C(F)(F)F)cc4)cccc32)c(Cl)c1 (single isomer, unassigned; (-)) [Example 2-13, (−)-N-(4-trifluoromethylphenyl)-4-{3-chloro-5-(1-hydroxyethyl)pyridin-2-yl}-3,4-dihydro-2H-benzo[1,4]oxazine-8-carboxamide]",< 100 nM
10,O=C(Nc1ccc(OC(F)(F)F)cc1)c1cccc2c1OCCN2c1ncccc1OCc1ccccn1 [Example 1-216],100 to 1000 nM
11,"COc1ccc(N2CCOc3c(C(=O)Nc4ccc(C(C)(C)C)cc4)cccc32)cc1 [Example 7-01, N-(4-tert-butylphenyl)-4-(4-methoxyphenyl)-3,4-dihydro-2H-benzo[1,4]oxazine-8-carboxamide]",< 100 nM
12,O=C(N[C@H]1CC[C@H](OC2CCCC2)CC1)c1cccc2c1OCCN2c1ncccc1Cl [Example 1-098],100 to 1000 nM
13,O=C(Nc1ccc(N2CCOCC2)cc1)c1cccc2c1OCCN2c1ncccc1Cl [Example 1-050],100 to 1000 nM
14,Cc1ccc(N2CCOc3c(C(=O)N[C@H]4CC[C@H](OCC5CCCCC5)CC4)cccc32)nc1 [Example 1-119],< 100 nM
15,Cc1cccnc1N1c2cccc(C(=O)Nc3ccc(OC(C)(C)C)c(F)c3)c2OC[C@@H]1CO [Example 4-43],< 100 nM
16,"Cc1nc(N2c3cccc(C(=O)Nc4ccc(C(F)(F)F)cc4)c3OC[C@@H]2CO)sc1C [Example 6-14, (S)-4-(4,5-dimethylthiazol-2-yl)-3-hydroxymethyl-N-(4-trifluoromethylphenyl)-3,4-dihydro-2H-benzo[1,4]oxazine-8-carboxamide]",< 100 nM
17,O=C(Nc1ccc(Cl)cc1)c1cccc2c1OC[C@H](CO)N2c1ccc(Cl)cc1 [Example 7-11],< 100 nM
18,O=C(Nc1ccc(N2CCCCC2)cc1)c1cccc2c1OCCN2c1ncccc1Cl [Example 1-048],< 100 nM
19,O=C(Nc1ccc(OCC(F)(F)F)c(Cl)c1)c1cccc2c1OCCN2c1ncc(CO)cc1Cl [Example 2-31],< 100 nM
20,Cc1ccc(N2c3cccc(C(=O)Nc4ccc(C(F)(F)F)c(F)c4)c3OC[C@@H]2CO)nc1 [Example 4-30],< 100 nM

row,SMILES,IC50
1,O=C(Nc1ccc(Cl)cc1)c1cccc2c1OCCN2c1ccc(Cl)cn1 [Example 1-121],< 100 nM
2,"Cc1cnc(N2c3cccc(C(=O)Nc4ccc(OC(F)(F)F)cc4)c3OC[C@@H]2CO)o1 [Example 6-11, (S)-3-hydroxymethyl-4-(5-methyloxazol-2-yl)-N-(4-trifluoromethoxyphenyl)-3,4-dihydro-2H-benzo[1,4]oxazine-8-carboxamide]",< 100 nM
3,COCc1ccc(N2CCOc3c(C(=O)Nc4ccc(C(C)(C)C)cc4)cccc32)nc1 [Example 1-194],< 100 nM
4,Cc1ccc(N2c3cccc(C(=O)Nc4ccc(Cl)c(C(F)(F)F)c4)c3OC[C@@H]2CO)nc1 [Example 4-37],< 100 nM
5,Cc1ccc(N2CCOc3c(C(=O)Nc4ccc(N5CCC(O)CC5)c(F)c4)cccc32)nc1 [Example 1-171],100 to 1000 nM
6,Cc1ccc(N2CCOc3c(C(=O)N[C@H]4CC[C@H](COC(C)C)CC4)cccc32)nc1 [Example 1-183],100 to 1000 nM
7,O=C(Nc1cnc(Cl)c(Cl)c1)c1cccc2c1OCCN2c1ncc(CO)cc1Cl [Example 2-20],< 100 nM
8,CC(C)COc1ccc(NC(=O)c2cccc3c2OCCN3c2ncc(CO)cc2Cl)cc1 [Example 2-39],< 100 nM
9,"COc1ccc(N2CCOc3c(C(=O)Nc4ccc(Cl)cc4)cccc32)cc1 [Example 7-03, N-(4-chlorophenyl)-4-(4-methoxyphenyl)-3,4-dihydro-2H-benzo[1,4]oxazine-8-carboxamide]",< 100 nM
10,"O=C(Nc1ccc(C(F)(F)F)cc1)c1cccc2c1OC[C@H](CO)N2c1ccc(Cl)cn1 [Example 4-06, (S)-4-(5-chloropyridin-2-yl)-3-hydroxylmethyl-N-(4-trifluoromethylphenyl)-3,4-dihydro-2H-benzo[1,4]oxazine-8-carboxamide]",< 100 nM
11,CC(C)Oc1ccc(NC(=O)c2cccc3c2OC[C@H](CO)N3c2ncccc2Cl)cc1C(F)(F)F [Example 4-21],< 100 nM
12,Cc1ccc(N2CCOc3c(C(=O)Nc4ccc(Cl)cc4)cccc32)nc1 [Example 1-091],< 100 nM
13,CC(C)(C)[C@H]1CC[C@H](NC(=O)c2cccc3c2OC[C@H](CO)N3c2ncccc2Cl)CC1 [Example 4-14],< 100 nM
14,"CC(O)c1cnc(N2CCOc3c(C(=O)Nc4ccc(OC(F)(F)F)cc4)cccc32)c(Cl)c1 (single isomer, unassigned; (-)) [Example 2-15, (−)-N-(4-trifluoromethoxyphenyl)-4-{3-chloro-5-(1-hydroxyethyl)pyridin-2-yl}-3,4-dihydro-2H-benzo[1,4]oxazine-8-carboxamide]",< 100 nM
15,O=C(Nc1ccc(OC(F)(F)F)cc1)c1cccc2c1OCC(CO)N2c1ncccc1Cl (stereo not drawn) [Example 4-52],< 100 nM
16,Cc1ccc(NC(=O)c2cccc3c2OC[C@H](CO)N3c2ncccc2Cl)cc1F [Example 4-13],< 100 nM
17,COC(C)(C)c1ccc(NC(=O)c2cccc3c2OCCN3c2ccc(C)cn2)cc1 [Example 1-082],< 100 nM
18,Cc1cnc(N2c3cccc(C(=O)Nc4ccc(N5CCOCC5)c(F)c4)c3OC[C@@H]2CO)s1 [Example 6-9],< 100 nM
19,O=C(Nc1ccc(OC(F)(F)F)cc1)c1cccc2c1OCCN2c1ncccc1Cl [Example 1-022],< 100 nM
20,COc1cc(NC(=O)c2cccc3c2OCCN3c2ccc(C)cn2)ccc1Cl [Example 1-083],< 100 nM
